Reference: paper PMC5427467, “Isolation and characterization of phthalates from Brevibacterium mcbrellneri that cause cytotoxicity and cell cycle arrest” (EXCLI Journal, 2017)
≈ marks a conversion by molar mass, not a printed value. Read-outs that look alike come from different tables or passages of the source.

Experiments:
[1] = tested on: Bacillus subtilis (MTCC 441); assay: Anti-bacterial activity, MIC in 96-well broth dilution; type: cell-based; conditions: MTCC441, B. subtilis, 24 hrs at 37 °C
Protocol: (§1) The antibacterial evaluation was carried out against Gram positive bacteria; Staphylococcus epidermidis (MTCC 435), Bacillus subtilis (MTCC 441), Staphylococcus aureus (MTCC 96), and Gram negative bacteria; Pseudomonas aeruginosa (MTCC 741), E. coli (MTCC 443) and Klebsiella pneumoniae (MTCC 618). Brevibacterium mcbrellneri MTCC (3913) was chosen for isolation of biologically active compounds.
(§2) The minimum inhibitory concentrations (MIC) were recorded against Staphylococcus aureus, Bacillus subtilis, Staphylococcus epidermidis, Pseudomonas aeruginosa, Escherichia coli and Klebsiella pneumoniae. In brief 96-well plates were distributed with Nutrient broth and the compounds in different concentrations (150 μg/mL to 0.5μg/mL). 50 μL microbial suspensions were seeded into each well (0.5 MacFarland standards) to make the final volume of 200 μl with culture broth. The plates were incubated for 24 hrs at 37 °C. The lowest concentration, at which the visible inhibition was recorded, was considered as MIC. Streptomycin and Benzylpenicillin were used as positive controls.

E. coli (MTCC 443) = assay: as above; type: cell-based; conditions: Escherichia coli, MTCC443, 24 hrs at 37 °C
Protocol: as §1, §2

[2] = tested on: Klebsiella pneumoniae (MTCC 618); assay: as above; type: cell-based; conditions: MTCC618, K. pneumoniae, 24 hrs at 37 °C
Protocol: as §1, §2

[3] = tested on: Pseudomonas aeruginosa (MTCC 741); assay: as above; type: cell-based; conditions: MTCC741, P. aeroginosa, 24 hrs at 37 °C
Protocol: as §1, §2

[4] = tested on: Staphylococcus aureus (MTCC 96); assay: as above; type: cell-based; conditions: MTCC96, S. aureus, 24 hrs at 37 °C
Protocol: as §1, §2

[5] = tested on: Staphylococcus epidermidis (MTCC 435); assay: as above; type: cell-based; conditions: MTCC435, S. epidermidis, 24 hrs at 37 °C
Protocol: as §1, §2

[6] = tested on: 4th instar larvae of Aedes aegypti; assay: Larvicidal bioassay/Dose-response bioassay; type: in vivo; conditions: 4th instar Aedes aegypti larvae, 24 h exposure
Protocol: The early 4th instar larvae of Aedes aegypti were selected for evaluation of mosquito larvicidal activity. The larvae were collected and fed with a mixture powdered yeast and dog biscuits. These were maintained in insectaries till the emergence of adults. The colony was photo periodically maintained at 14 L: 10 D (hours) and with relative humidity 80 ± 5 % at 28 °C (Kumar et al., 2010[16]). Adult mosquitoes were fed with blood for egg maturation. The eggs were allowed to hatch in an enamel bowl lined with Whatman filter paper filled with distilled water. The pupae formed were separated and transferred to insectary for the emergence of adults (da Silva et al., 2016[6]).
Based on the preliminary screening results, different concentrations ranging from 25 to 200 ppm were prepared for DEHP and 25 to 1 ppm for DBP were used. The compounds were subjected to dose response bioassay against 4th instar larvae of Aedes aegypti larvae. Dead larvae were counted after 24 h of exposure, and the percentage mortality was reported from the average of triplicates (Govindarajan et al., 2016[9]).

CHO = assay: MTT cell proliferation assay; type: cell-based; conditions: Cricetulus griseus, 24 hrs
Protocol: (§3) The MTT cell proliferation was assessed against the cell lines HeLa (ATCC; CCL-2), A549 (ATCC; CCL-185), MCF-7 (ATCC; HTB-22), DU145 (ATCC; HTB-81), CHO (ATCC; CCL-61), HEK293 (ATCC; CRL-1573), NIH3T3 (ATCC; CRL-1658) were procured from the American Type Culture Collection (ATCC). These cell lines were grown and maintained in Dulbecco's modified Eagle's medium with non-essential amino acids, 10 % fetal bovine serum (FBS), 1 mM sodium pyruvate, in humidified atmosphere containing 5 % CO2 at 37 °C (Esumi et al., 2004[7]).
(§4) The cell lines were seeded in 96-well plates in 200 µL aliquots. The test compounds in different concentrations were added and incubated at 37 °C for 24 hrs. Doxorubicin was used as positive control (Prata-Sena et al., 2016[28]).

DU-145 = assay: MTT cell proliferation assay; type: cell-based; conditions: Homo sapiens; DU-145, MTT, 24 hrs
Protocol: as §3, §4

MCF-7 = assay: MTT cell proliferation assay; type: cell-based; conditions: Homo sapiens, MCF7; MCF-7, MTT, 24 hrs
Protocol: as §3, §4

B. subtilis [7] = tested on: B. subtilis; set-up: method as in Habib and Karim, 2009 [10]; conditions: DEHP isolated from Calotropis gigantean, ref Habib and Karim, 2009 [10]; cited from earlier work
Sarcina lutea = tested on: Sarcina lutea; set-up: method as in Habib and Karim, 2009 [10]; conditions: DEHP isolated from Calotropis gigantean, ref Habib and Karim, 2009 [10]; cited from earlier work
[8] = set-up: method as in Habib and Karim, 2009 [10]; conditions: DEHP isolated from Calotropis gigantean; ref Habib and Karim, 2009 [10]; cited from earlier work
HaCaT cells = tested on: HaCaT cells; set-up: method as in Peropadre et al., 2015 [26]; conditions: ref Peropadre et al., 2015 [26]; cited from earlier work
HePG2 cells = tested on: HePG2 cells; set-up: method as in Lyu et al., 2016 [19]; conditions: ref Lyu et al., 2016 [19]; cited from earlier work
HEK 293 = assay: MTT cell proliferation assay; type: cell-based; conditions: Homo sapiens, HEK293; HEK 293, MTT, 24 hrs
Protocol: as §3, §4

E. coli = tested on: E. coli; set-up: method as in Roy et al., 2006 [30]; conditions: DBP isolated from Streptomyces albidoflavus, ref Roy et al., 2006 [30]; cited from earlier work
B. subtilis [9] = tested on: B. subtilis; set-up: method as in Roy et al., 2006 [30]; conditions: DBP isolated from Streptomyces albidoflavus, ref Roy et al., 2006 [30]; cited from earlier work
S. typhi = tested on: S. typhi; set-up: method as in Roy et al., 2006 [30]; conditions: DBP isolated from Streptomyces albidoflavus, ref Roy et al., 2006 [30]; cited from earlier work
S. cerevisiae = tested on: S. cerevisiae; set-up: method as in Roy et al., 2006 [30]; conditions: DBP isolated from Streptomyces albidoflavus, ref Roy et al., 2006 [30]; cited from earlier work
A. niger = tested on: A. niger; set-up: method as in Roy et al., 2006 [30]; conditions: DBP isolated from Streptomyces albidoflavus, ref Roy et al., 2006 [30]; cited from earlier work
Curvularia pallescens = tested on: Curvularia pallescens; set-up: method as in Roy et al., 2006 [30]; conditions: DBP isolated from Streptomyces albidoflavus, ref Roy et al., 2006 [30]; cited from earlier work
A549 cells = tested on: A549 cells; set-up: method as in Hsu et al., 2011 [14]; conditions: ref Hsu et al., 2011 [14]; cited from earlier work

| Structure (SMILES) | MIC [1] | MIC (E. coli (MTCC 443)) | MIC [2] | MIC [3] | MIC [4] | MIC [5] | LC50 [6] | IC50 (CHO) | IC50 (DU-145) | IC50 (MCF-7) | IC50 (HEK 293) | other results |
| --- | --- | --- | --- | --- | --- | --- | --- | --- | --- | --- | --- | --- |
| CCCCC(CC)COC(=O)c1ccccc1C(=O)OCC(CC)CCCC (centres unmarked) [DEHP, di-(2-ethylhexyl) phthalate] | 37.5 µg/mL (≈ 96 µM) | 37.5 µg/mL (≈ 96 µM) | 75 µg/mL (≈ 192 µM) | 75 µg/mL (≈ 192 µM) | 18.8 µg/mL (≈ 48 µM) | 9.37 µg/mL (≈ 24 µM) | 47.65 ppm | 193 ± 5.4 µg/mL (≈ 494 µM) | 33.5 ± 7.7 µg/mL (≈ 85.7 µM) | 46.55 ± 0.1 µg/mL (≈ 119 µM) | – | MIC (B. subtilis [7]): 32 µg/mL (≈ 81.9 µM); MIC (Sarcina lutea): 32 µg/mL (≈ 81.9 µM); antifungal property [8]: negligible; cell cycle effect (HaCaT cells): cell cycle arrest at G1 phase; apoptosis / cell cycle effect (HePG2 cells): apoptosis without cell cycle arrest |
| COc1cccc2c1C(=O)c1c(O)c3c(c(O)c1C2=O)C[C@@](O)(C(=O)CO)C[C@@H]3O[C@H]1C[C@H](N)[C@H](O)[C@H](C)O1 [doxorubicin, Doxorubicin, reference compound] | – | – | – | – | – | – | – | – | – | – | 21.8 ± 8.8 µg/mL (≈ 40.1 µM) | – |
| CCCCOC(=O)c1ccccc1C(=O)OCCCC [DBP, dibutyl phthalate] | 18.8 µg/mL (≈ 67.4 µM) | 37.5 µg/mL (≈ 135 µM) | 75 µg/mL (≈ 269 µM) | 37.5 µg/mL (≈ 135 µM) | 37.5 µg/mL (≈ 135 µM) | 18.8 µg/mL (≈ 67.4 µM) | 1.62 ppm | 36 ± 8.6 µg/mL (≈ 129 µM) | 31.2 ± 8.7 µg/mL (≈ 112 µM) | 32.4 ± 3.6 µg/mL (≈ 117 µM) | 19.8 ± 10 µg/mL (≈ 71 µM) | mortality at 25 ppm ([6]; at 25 ppm): 100%; MIC (E. coli): 53 µg/mL (≈ 190 µM); MIC (B. subtilis [9]): 84 µg/mL (≈ 302 µM); MIC (S. typhi): 76 µg/mL (≈ 273 µM); MIC (S. cerevisiae): 92 µg/mL (≈ 331 µM); MIC (A. niger): 98 µg/mL (≈ 352 µM); MIC (Curvularia pallescens): 117 µg/mL (≈ 420 µM); cytotoxic activity (A549 cells): Cytotoxic activity |
